# Assay results: patent publication US20230265151A1, “GIP/GLP1 CO-AGONIST COMPOUNDS” (priority 2020, published 2023)
# Like-named read-outs stand apart in the source and are kept apart here.
# Columns and labels:
# [1] = molecular target: hGLP-1R (Homo sapiens, UniProt P43220); test: Functional cAMP formation (HTRF) in HEK-293 clonal cells expressing hGLP-1R, 0.1% bovine casein, without or with 1.0% human serum albumin; format: cell-based; parameters: expressed in transfected cells; details: 37° C.; for Emax: HEK293, cAMP, percent of maximal response to GLP-1(7-36)NH2, read-out: hGLP-1R Emax, % ± SEM; for EC50: cAMP, 0.1% bovine casein (no human serum albumin), geometric mean, read-out: hGLP-1R EC50, nM (SEM, n)
# Method in brief: (§1)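 Cells were stimulated with peptide for 30 min at 37° C, then intracellular cAMP was measured by competitive HTRF (665/620 nm ratio) and converted to nM using a cAMP standard curve. Relative EC50 and Emax came from four-parameter logistic fits of percent maximal response against peptide concentration.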
# [2] = molecular target: T1, hGCGR (Homo sapiens, UniProt P47871); test: Functional cAMP formation (HTRF) in HEK-293 clonal cells expressing hGCGR, 0.1% bovine casein, without or with 1.0% human serum albumin; format: cell-based; details: cAMP, 37° C., read-out: hGCGR EC50, nM (SEM, n)
# T1 construct: expressed in transfected cells
# Method in brief: as §1
# [3] = molecular target: T2, hGIPR (Homo sapiens, UniProt P48546); test: Functional cAMP formation (HTRF) in HEK-293 clonal cells expressing hGIPR, 0.1% bovine casein, without or with 1.0% human serum albumin; format: cell-based; details: 37° C.; for EC50: cAMP, read-out: hGIPR EC50, nM (SEM, n); for Emax: HEK293, cAMP, percent of maximal response to GIP(1-42)NH2, read-out: hGIPR Emax, % ± SEM
# T2 construct: expressed in transfected cells
# T2 sequence (P48546 22-466): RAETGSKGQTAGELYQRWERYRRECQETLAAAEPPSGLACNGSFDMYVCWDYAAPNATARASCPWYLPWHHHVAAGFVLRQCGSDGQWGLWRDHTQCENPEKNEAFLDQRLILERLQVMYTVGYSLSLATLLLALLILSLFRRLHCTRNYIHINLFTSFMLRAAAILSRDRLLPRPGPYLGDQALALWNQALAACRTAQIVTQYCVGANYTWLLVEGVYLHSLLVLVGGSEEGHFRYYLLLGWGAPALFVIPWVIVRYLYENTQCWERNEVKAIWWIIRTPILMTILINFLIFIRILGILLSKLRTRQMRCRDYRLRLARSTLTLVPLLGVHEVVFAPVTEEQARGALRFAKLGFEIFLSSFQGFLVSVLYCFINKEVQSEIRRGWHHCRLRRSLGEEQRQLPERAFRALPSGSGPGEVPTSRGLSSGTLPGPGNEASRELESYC
# Method in brief: as §1
# [4] = molecular target: T3, human GLP-1 receptor (hGLP-1R) (Homo sapiens, UniProt P43220); test: [125I]-GLP-1 binding, SPA with membranes of HEK293 cells expressing hGLP-1R; details: human GLP-1R; geometric mean (SEM, n); read-out: Binding Affinity Ki, nM (SEM, n) hGLP-1R
# T3 construct: expressed in transfected cells; crude membranes
# [5] = molecular target: T4, human GIP receptor (hGIPR) (Homo sapiens, UniProt P48546); test: [125I]-GIP binding, SPA with membranes of CHO cells expressing hGIPR; details: human GIPR; geometric mean (SEM, n); read-out: Binding Affinity Ki, nM (SEM, n) hGIPR
# T4 construct: expressed in transfected cells; crude membranes
# T4 sequence (P48546 22-466): T2 sequence (P48546 22-466)
# [6] = 0.1% bovine casein and 1.0% human serum albumin
# [7] = 0.1% bovine casein, arithmetic mean
# [8] = 0.1% bovine casein (no human serum albumin), geometric mean
# [9] = 0.1% bovine casein and 1.0% human serum albumin, geometric mean (SEM, n)
# T1 sequence (P47871 26-477): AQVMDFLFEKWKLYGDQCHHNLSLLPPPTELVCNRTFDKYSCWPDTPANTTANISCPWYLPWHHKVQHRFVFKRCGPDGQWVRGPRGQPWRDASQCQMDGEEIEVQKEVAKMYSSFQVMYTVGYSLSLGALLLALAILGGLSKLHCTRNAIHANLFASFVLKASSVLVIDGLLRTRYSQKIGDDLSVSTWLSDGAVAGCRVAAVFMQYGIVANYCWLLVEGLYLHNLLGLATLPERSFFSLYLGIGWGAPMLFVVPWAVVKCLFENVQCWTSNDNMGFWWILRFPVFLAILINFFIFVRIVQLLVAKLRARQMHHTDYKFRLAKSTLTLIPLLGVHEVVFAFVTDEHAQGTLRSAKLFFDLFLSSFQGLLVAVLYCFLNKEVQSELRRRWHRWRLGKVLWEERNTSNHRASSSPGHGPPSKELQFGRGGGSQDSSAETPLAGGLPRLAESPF
# T3 sequence (P43220 24-463): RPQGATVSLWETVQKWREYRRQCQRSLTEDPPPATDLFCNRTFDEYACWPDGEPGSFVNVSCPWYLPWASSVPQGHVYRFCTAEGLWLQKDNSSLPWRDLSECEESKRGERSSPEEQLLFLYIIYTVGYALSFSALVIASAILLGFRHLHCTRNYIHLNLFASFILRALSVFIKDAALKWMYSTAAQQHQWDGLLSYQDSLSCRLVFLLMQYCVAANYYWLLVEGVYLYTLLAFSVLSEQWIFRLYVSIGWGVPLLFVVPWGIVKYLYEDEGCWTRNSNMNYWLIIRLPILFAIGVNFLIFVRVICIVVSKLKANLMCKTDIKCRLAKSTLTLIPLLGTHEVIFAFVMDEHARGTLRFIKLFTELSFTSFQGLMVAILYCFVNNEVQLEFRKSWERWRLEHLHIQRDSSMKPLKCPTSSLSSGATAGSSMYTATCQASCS
# Chain of hGLP-1R (P43220 24-463): as above
SMILES,"Emax [1, 6] [%]","Emax [1, 7] [%]",EC50 [1] [nM],"EC50 [2, 8] [nM]","EC50 [2, 9] [nM]","EC50 [3, 8] [nM]",Ki [4] [nM],Ki [5] [nM],"Emax [3, 6] [%]","EC50 [3, 9] [nM]","Emax [3, 7] [%]"
CC[C@H](C)[C@H](NC(=O)[C@H](CC(C)C)NC(=O)[C@](C)(Cc1ccc(O)cc1)NC(=O)[C@H](CCCCNC(=O)CC[C@H](NC(=O)COCCOCCNC(=O)COCCOCCNC(=O)CC[C@H](NC(=O)CCCCCCCCCCCCC(=O)O)C(=O)O)C(=O)O)NC(=O)[C@@H](NC(=O)[C@H](Cc1ccccc1)NC(=O)[C@H](CCCN)NC(=O)C(C)(C)NC(=O)[C@H](CCC(N)=O)NC(=O)[C@H](C)NC(=O)[C@H](CCC(N)=O)NC(=O)[C@H](CCCN)NC(=O)[C@H](CC(=O)O)NC(=O)[C@H](CC(C)C)NC(=O)[C@](C)(CC(C)C)NC(=O)[C@@H](NC(=O)C(C)(C)NC(=O)[C@H](Cc1ccncc1)NC(=O)[C@H](CC(=O)O)NC(=O)[C@H](CO)NC(=O)[C@@H](NC(=O)[C@](C)(Cc1ccccc1F)NC(=O)[C@@H](NC(=O)CNC(=O)[C@H](CCC(=O)O)NC(=O)C(C)(C)NC(=O)[C@@H](N)Cc1ccc(O)cc1)[C@@H](C)O)[C@@H](C)O)[C@@H](C)CC)[C@@H](C)CC)C(=O)N[C@@H](CCCCNC(=O)CC[C@H](NC(=O)COCCOCCNC(=O)COCCOCCNC(=O)CC[C@H](NC(=O)CCCCCCCCCCCCC(=O)O)C(=O)O)C(=O)O)C(=O)NCC(=O)NCC(=O)N1CCC[C@H]1C(=O)N[C@@H](CO)C(=O)N[C@@H](CO)C(=O)NCC(=O)N[C@@H](C)C(=O)N1CCC[C@H]1C(=O)N1CCC[C@H]1C(=O)N1CCC[C@H]1C(=O)N[C@@H](CO)C(N)=O [Example 482],110,118,0.169,> 9950,> 9950,0.0158,0.254,0.0277,,,
CC[C@H](C)[C@H](NC(=O)[C@H](CC(C)C)NC(=O)[C@](C)(Cc1ccc(O)cc1)NC(=O)[C@H](CCCCNC(=O)COCCOCCNC(=O)CC[C@H](NC(=O)COCCOCCNC(=O)CC[C@H](NC(=O)CCCCCCCCCCCCC(=O)O)C(=O)O)C(=O)O)NC(=O)[C@@H](NC(=O)[C@H](Cc1ccccc1)NC(=O)[C@H](CCCN)NC(=O)C(C)(C)NC(=O)[C@H](CCC(N)=O)NC(=O)[C@H](C)NC(=O)[C@H](CCC(N)=O)NC(=O)[C@H](CCCN)NC(=O)[C@H](CC(=O)O)NC(=O)[C@H](CC(C)C)NC(=O)[C@](C)(CC(C)C)NC(=O)[C@@H](NC(=O)C(C)(C)NC(=O)[C@H](Cc1ccncc1)NC(=O)[C@H](CC(=O)O)NC(=O)[C@H](CO)NC(=O)[C@@H](NC(=O)[C@](C)(Cc1ccccc1F)NC(=O)[C@@H](NC(=O)CNC(=O)[C@H](CCC(=O)O)NC(=O)C(C)(C)NC(=O)[C@@H](N)Cc1ccc(O)cc1)[C@@H](C)O)[C@@H](C)O)[C@@H](C)CC)[C@@H](C)CC)C(=O)N[C@@H](CCCCNC(=O)COCCOCCNC(=O)CC[C@H](NC(=O)COCCOCCNC(=O)CC[C@H](NC(=O)CCCCCCCCCCCCC(=O)O)C(=O)O)C(=O)O)C(=O)NCC(=O)NCC(=O)N1CCC[C@H]1C(=O)N[C@@H](CO)C(=O)N[C@@H](CO)C(=O)NCC(=O)N[C@@H](C)C(=O)N1CCC[C@H]1C(=O)N1CCC[C@H]1C(=O)N1CCC[C@H]1C(=O)N[C@@H](CO)C(N)=O [Example 484],,118,0.17,> 9950,> 9950,0.0136,0.268,0.0296,91.3,0.453,
CC[C@H](C)[C@H](NC(=O)[C@H](CC(C)C)NC(=O)[C@](C)(Cc1ccc(O)cc1)NC(=O)[C@H](CCCCNC(=O)COCCOCCNC(=O)CC[C@H](NC(=O)CC[C@H](NC(=O)CC[C@H](NC(=O)CCCCCCCCCCCCC(=O)O)C(=O)O)C(=O)O)C(=O)O)NC(=O)[C@@H](NC(=O)[C@H](Cc1ccccc1)NC(=O)[C@H](CCCN)NC(=O)C(C)(C)NC(=O)[C@H](CCC(N)=O)NC(=O)[C@H](C)NC(=O)[C@H](CCC(N)=O)NC(=O)[C@H](CCCN)NC(=O)[C@H](CC(=O)O)NC(=O)[C@H](CC(C)C)NC(=O)[C@](C)(CC(C)C)NC(=O)[C@@H](NC(=O)C(C)(C)NC(=O)[C@H](Cc1ccncc1)NC(=O)[C@H](CC(=O)O)NC(=O)[C@H](CO)NC(=O)[C@@H](NC(=O)[C@](C)(Cc1ccccc1F)NC(=O)[C@@H](NC(=O)CNC(=O)[C@H](CCC(=O)O)NC(=O)C(C)(C)NC(=O)[C@@H](N)Cc1ccc(O)cc1)[C@@H](C)O)[C@@H](C)O)[C@@H](C)CC)[C@@H](C)CC)C(=O)N[C@@H](CCCCNC(=O)COCCOCCNC(=O)CC[C@H](NC(=O)CC[C@H](NC(=O)CC[C@H](NC(=O)CCCCCCCCCCCCC(=O)O)C(=O)O)C(=O)O)C(=O)O)C(=O)NCC(=O)NCC(=O)N1CCC[C@H]1C(=O)N[C@@H](CO)C(=O)N[C@@H](CO)C(=O)NCC(=O)N[C@@H](C)C(=O)N1CCC[C@H]1C(=O)N1CCC[C@H]1C(=O)N1CCC[C@H]1C(=O)N[C@@H](CO)C(N)=O [Example 486],,,0.166,> 9950,> 9950,0.0143,0.299,0.046,88.2,,94.1
CC[C@H](C)[C@H](NC(=O)[C@H](CC(C)C)NC(=O)[C@](C)(Cc1ccc(O)cc1)NC(=O)[C@H](CCCCNC(=O)COCCOCCNC(=O)COCCOCCNC(=O)CC[C@H](NC(=O)CCCCCCCCCCCCC(=O)O)C(=O)O)NC(=O)[C@@H](NC(=O)[C@H](Cc1ccccc1)NC(=O)[C@H](CCCN)NC(=O)C(C)(C)NC(=O)[C@H](CCC(N)=O)NC(=O)[C@H](C)NC(=O)[C@H](CCC(N)=O)NC(=O)[C@H](CCCN)NC(=O)[C@H](CC(=O)O)NC(=O)[C@H](CC(C)C)NC(=O)[C@](C)(CC(C)C)NC(=O)[C@@H](NC(=O)[C@H](CO)NC(=O)[C@H](CCc1ccc(O)cc1)NC(=O)[C@H](CC(=O)O)NC(=O)[C@H](CO)NC(=O)[C@@H](NC(=O)[C@](C)(Cc1ccccc1F)NC(=O)[C@@H](NC(=O)CNC(=O)[C@H](CCC(=O)O)NC(=O)C(C)(C)NC(=O)[C@@H](N)Cc1ccc(O)cc1)[C@@H](C)O)[C@@H](C)O)[C@@H](C)CC)[C@@H](C)CC)C(=O)N[C@@H](CCCCNC(=O)COCCOCCNC(=O)COCCOCCNC(=O)CC[C@H](NC(=O)CCCCCCCCCCCCC(=O)O)C(=O)O)C(=O)NCC(=O)NCC(=O)N1CCC[C@H]1C(=O)N[C@@H](CO)C(=O)N[C@@H](CO)C(=O)NCC(=O)N[C@@H](C)C(=O)N1CCC[C@H]1C(=O)N1CCC[C@H]1C(=O)N1CCC[C@H]1C(=O)N[C@@H](CO)C(N)=O [Example 491],105,119,0.148,> 9950,> 9950,0.0148,0.182,0.0301,87.5,,100
